# Source: patent US20120165319A1, “INHIBITORS OF INTERLEUKIN-1 BETA CONVERTING ENZYME” (VERTEX PHARMACEUTICALS INCORPORATED, priority 1995, published 2012)
# pIC50: −log10 of the molar value. Several values for one entry are separate records, joined by “and”; a condition that tells them apart may be missing. Equal values may be shown once. Entries after “also recorded” stand apart in the source; their conditions may differ. Read-outs that look alike come from different tables or passages of the source.
# What was measured:
# [1] = system: IL-1β, human peripheral blood mononuclear cells (PBMC); experiment: PBMC cell assay: IL-1β assay with human PBMC or enriched adherent mononuclear cells, LPS-stimulated; assay type: cell-based
# Summary of the method: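 Buffy-coat human PBMC at 6×10^6 cells/ml, or adherent monocytes enriched by 1 h adherence (2.5−3.0×10^5 cells/well), are given 5–6 compound dilutions bracketing the ICE Ki (final DMSO 0.1%) plus LPS at a final 5 ng/ml. They are incubated 16–18 hr at 37 °C, 5% CO2, and supernatant mature IL-1β is measured by ELISA, with duplicate cultures and duplicate ELISAs.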
# [2] = Pharmacokinetic studies in the mouse (i.v. clearance, plasma levels); assay type: in vivo; conditions: for clearance: CD-1, plasma; for clearance / concentration at 2 min: iv; for concentration at 2 min: plasma, read-out: mean plasma level at 2 minutes
# Summary of the method: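 Male CD-1 mice (26-31 g) given 25 mg/kg i.v. via tail vein in 0.02M Tris (2.5 mg/ml), groups of 5 per timepoint from 2 to 120 min. Heparinized plasma deproteinated (perchloric acid or acetonitrile) and analysed by reverse-phase HPLC with UV or MS detection against plasma-spiked calibration (0.5 to 50 μg/ml).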
# [3] = system: IL-1β production, LPS-challenged mice; experiment: In vivo acute assay for efficacy as anti-inflammatory agent: LPS-induced IL-1β production in mice; set-up: species or system mouse; conditions: for IP % Inhibition / POS Inhibition: % inhibition of IL-β production, 50 mg/kg (Table 3); for percent inhibition of IL-1β production / inhibition at 50 mg/kg: compound PO; for inhibition of IL-1β secretion/production after IP administration: LPS-challenged CD1 mice, IP injection one hour after LPS; for inhibition at 50 mg/kg: po, read-out: percent inhibition of IL-1β production
# Summary of the method: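 CD1 mice (n=6) were challenged with LPS 20 mg/kg IP and given compound IP in olive oil:DMSO:ethanol (90:5:5) 1 h after LPS, or at the time of challenge for some analogs. Blood was taken 7 h after LPS and serum IL-1β was measured by ELISA. Oral gavage at 50 mg/kg was also tested.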
# [4] = Homo sapiens, PBMC, * = values obtained upon reassay
# [5] = male CD-1 mice, i.v. tail vein, 25 mg/kg
# [6] = mouse, male CD-1 mice, i.v. tail vein, 25 mg/kg
# [7] = LPS challenged mice, PO, 50 mg/kg, * = values obtained in subsequent assays (Table 4)
# [8] = Mus musculus, 2 h, LPS challenged mice, 50 mg/kg, administered −2 h relative to time of LPS challenge
# [9] = * = values obtained upon reassay
# [10] = Mus musculus, 0 h, LPS challenged mice, 50 mg/kg, administered 0 h relative to time of LPS challenge
compound,measurement,setting,value
"O=C[C@H](CC(=O)O)NC(=O)[C@@H]1CCCN2C(=O)CC[C@H](NC(=O)c3ccccc3)C(=O)N12 [Compound 214e, [3S(1S,9S)]3-(9-Benzoylamino-6,10-dioxo-1,2,3,4,7,8,9,10-octahydro-6H-pyridazino[1,2-a][1,2]-diazepine-1-carboxamido)-4-oxobutanoic acid]",pIC50,[1]; [4],5.80
same,clearance,"[2]; mouse, 25 mg/kg",23 mL/min/kg
same,mean plasma level at 90 and 120 minutes,[2]; [5],< 2 µg/mL
same,concentration at 2 min,[2]; [6],70 µg/mL
same,IP % Inhibition,[3]; LPS-challenged mice,78%
same,POS Inhibition,"[3]; LPS-challenged mice, PO",75%
same,"Inhibition of IL-1β Production, compound administered 0 hr relative to LPS challenge",[3]; [7],48* % and 80* %
same,"Inhibition of IL-1β Production, compound administered −1 hr relative to LPS challenge",[3]; [7],44* %
same,"Inhibition of IL-1β Production, compound administered −2 hr relative to LPS challenge",[3]; [7],43* % and 39* %
same,percent inhibition of IL-1β production,"[3]; LPS challenged mice, 50 mg/kg, administered 0 h relative to time of LPS challenge",70% and 48%
same,percent inhibition of IL-1β production,"[3]; LPS challenged mice, 50 mg/kg, administered −2 h relative to time of LPS challenge",43%
same,inhibition of IL-1β secretion/production after IP administration,[3]; result in words,dose dependent inhibition; also recorded: inhibit IL-1β production
same,inhibition of IL-1β secretion/production after oral (PO) administration,"[3]; LPS-challenged mice, oral gavage, 50 mg/kg, result in words",inhibited IL-1β secretion; also recorded: inhibit IL-1β production
same,inhibition at 50 mg/kg,"[3]; Mus musculus, 1 h, LPS challenged mice, 50 mg/kg, administered −1 h relative to time of LPS challenge",44%
same,inhibition at 50 mg/kg,[3]; [8],39%
same,ED50,"[3]; Mus musculus, CD1 mice, LPS 20 mg/kg IP, compound IP one hour after LPS, blood seven hours after LPS, read-out: ED50, inhibition of IL-1β secretion",~15 mg/kg
"O=C(O)C[C@H](NC(=O)[C@@H]1CCCN2C(=O)CC[C@H](NC(=O)c3ccccc3)C(=O)N12)C(=O)COC(=O)c1c(Cl)cccc1Cl [Compound 217e, [3S(1S,9S)]3-(9-Benzoylamino-6,10-dioxo-1,2,3,4,7,8,9,10-octahydro-6H-pyridazino[1,2-a][1,2]-diazepine-1-carboxamido)-5-(2,6-dichlorobenzoyloxy)-4-oxopentanoic acid]",pIC50,[1]; [4],6.76
same,clearance,"[2]; mouse, 25 mg/kg",> 50 mL/min/kg
same,mean plasma concentration at 60-120 minutes,[2]; [5],< 0.2 µg/mL
same,concentration at 2 min,[2]; [6],~55 µg/mL
same,inhibition of IL-1β secretion/production after IP administration,[3]; result in words,significant inhibition; also recorded: inhibits IL-1β production
"O=C[C@H](CC(=O)O)NC(=O)[C@@H]1CCCN2C(=O)CCN(NC(=O)c3ccccc3)C(=O)N12 [Compound 265, [3S(4S)]3-(7-Benzamido-6,10-dioxo-1,2,3,4,7,8,9,10-octahydro-6H-pyridazino[1,2-a][1,2,4]triazepine-4-carboxamido)-4-oxobutanoic acid]",pIC50,[1]; [4],5.37
same,clearance,"[2]; mouse, 25 mg/kg",23 mL/min/kg
same,IP % Inhibition,[3]; LPS-challenged mice,30%
same,POS Inhibition,"[3]; LPS-challenged mice, PO",27%
Cc1ccccc1C(=O)N[C@H]1CCC(=O)N2CCC[C@@H](C(=O)N[C@H](C=O)CC(=O)O)N2C1=O [Compound 404],pIC50,[1]; [9],5.74
same,pIC50,[1]; [4],5.78
same,clearance,"[2]; mouse, 25 mg/kg",64 mL/min/kg
same,inhibition at 50 mg/kg,[3]; [10],6%
same,inhibition at 50 mg/kg,"[3]; Mus musculus, 1 h, LPS challenged mice, 50 mg/kg, administered +1 h relative to time of LPS challenge",56%
same,inhibition at 50 mg/kg,[3]; [8],55%
"O=C[C@H](CC(=O)O)NC(=O)[C@@H]1CCCN2C(=O)CC[C@H](NC(=O)c3ccc4c(c3)OCO4)C(=O)N12 [Compound 415, [3S(1S,9S)]3-[6,10-Dioxo-9-(3,4-methylenedioxybenzoylamino)-1,2,3,4,7,8,9,10-octahydro-6H-pyridazino[1,2-a][1,2]diazepine-1-carboxamido]-4-oxobutanoic acid]",pIC50,[1]; [9],6.00
same,pIC50,[1]; [4],6.00
same,clearance,"[2]; mouse, 25 mg/kg",26 mL/min/kg
"COc1cc(C(=O)N[C@H]2CCC(=O)N3CCC[C@@H](C(=O)N[C@H](C=O)CC(=O)O)N3C2=O)cc(OC)c1OC [Compound 417, [3S(1S,9S)]3-[6,10-Dioxo-1,2,3,4,7,8,9,10-octahydro-9-(3,4,5-trimethoxybenzoylamino)-6H-pyridazino[1,2-a][1,2]diazepine-1-carboxamido]-4-oxobutanoic acid]",pIC50,[1]; [4],5.70
same,clearance,"[2]; mouse, 25 mg/kg",33 mL/min/kg
"CC(=O)Nc1cccc(C(=O)N[C@H]2CCC(=O)N3CCC[C@@H](C(=O)N[C@H](C=O)CC(=O)O)N3C2=O)c1 [Compound 450, [3S(1S,9S)]3-{9-[(3-Acetamido)benzamido]-6,10-dioxo-1,2,3,4,7,8,9,10-octahydro-6H-pyridazino[1,2-a][1,2]diazepine-1-carboxamido}-4-oxobutanoic acid]",pIC50,[1]; [4],6.10
same,clearance,"[2]; mouse, 25 mg/kg",18 mL/min/kg
same,inhibition at 50 mg/kg,[3]; [10],35%
same,inhibition at 50 mg/kg,[3]; [8],0%
"O=C[C@H](CC(=O)O)NC(=O)[C@@H]1CCCN2C(=O)CC[C@H](NC(=O)c3cc4ccccc4[nH]3)C(=O)N12 [Compound 475, [3S(1S,9S)]3-[6,10-Dioxo-9-(indol-2-oylamino)-1,2,3,4,7,8,9,10-octahydro-6H-pyridazino[1,2-a][1,2]diazepine-1-carboxamido]-4-oxobutanoic acid]",pIC50,[1]; [9],6.19
same,pIC50,[1]; [4],6.16
same,clearance,"[2]; mouse, 25 mg/kg",31 mL/min/kg
same,inhibition at 50 mg/kg,[3]; [10],15%
same,inhibition at 50 mg/kg,[3]; [8],0%
"COC(=O)N[C@H]1CCC(=O)N2CCC[C@@H](C(=O)N[C@@H](CC(=O)O)C(=O)CSc3ncccn3)N2C1=O [Compound 511c, [3S(1S,9S)]3-[6,10-Dioxo-9-(methoxycarbonyl)-amino-1,2,3,4,7,8,9,10-octahydro-6H-pyridazino[1,2-a][1,2]diazepine-1-carboxamido]-5-(2-mercaptopyrimidine)-4-oxopentanoic acid]",pIC50,"[1]; Homo sapiens, PBMC, Table 17",< 4.70
same,clearance,"[2]; 25 mg/kg, mouse, Table 17",78 mL/min/kg
CC(=O)N1C[C@H](NC(=O)c2ccc3ccccc3c2)C(=O)N(CC(=O)N[C@H](C=O)CC(=O)O)c2ccccc21 [Compound 605n],pIC50,[1]; [4],5.68
same,clearance,"[2]; mouse, 25 mg/kg",28 mL/min/kg
"[3S(1S,9S)]3-[(6,10-Dioxo-9-(methanesulphonylamino)-1,2,3,4,7,8,9,10-octahydro-6H-pyridazino[1,2-a][1,2]diazepine-1-carboxamido]-5-(5-methyl-3-phenylisoxazoyloxy)-4-oxopentanoic acid [505 b]",pIC50,[1]; Table 18,5.82
same,"Clearance Mouse, i.v.","[2]; mouse, i.v., Table 18",161 mL/min/kg
